Columns and labels:
MBP induced acute EAE = assay: MBP induced acute EAE; type: in vivo, Lewis rats
Description: In the present study, EAE was induced by injection of Myelin Basic Protein (MBP), a method known to model the acute phase of MS. In this model the onset of the disease is observed by the appearance of clinical symptoms about 10 days after induction. The disease progresses and the clinical score increases and peaks around day 15 and spontaneous recovery is observed around day 23 after induction of the disease.
Female Lewis rats (average body weight 130-180 g, Harlan, Israel) were injected s.c. into the hind paws with 25 μg of purified guinea pig myelin basic protein (MBP, Sigma) emulsified in 0.1 ml of Complete Freund's Adjuvant (Difco). Animals were maintained on a 12 hours light/12 hours dark regimen, at a constant temperature of 22° C., with food and water ad libitum. Starting from day 8 following induction, animals were followed up on a daily basis. The results are recorded as clinical score; score of 0 indicates a normal animal with no clinical signs, 0.5 indicates a loss of tonicity in the tail's distal part, 1 indicates whole tail paralysis, 1.5 indicates hind legs weakness in one leg, 2 indicates hind legs weakness in two legs, 2.5 indicates fore legs paralysis in one leg, 3 indicates paralysis of all four legs, 4 indicates complete body paralysis and moribund state and 5 indicates death. The clinical score of the animals is recorded for 15 days following onset of disease until the end of the study 25 days following induction and the area under the curve (AUC) is calculated over this period of time.
Few routes of administration were assessed and the treatments were either administered intravenously (in CE vehicle) or orally by gavage (in PB vehicle) at volume dose of 5 ml/kg.
Results are expressed as mean±SEM and the differences between the treatment groups were analyzed by analysis of variance (ANOVA) followed by Tukey's post hoc test. A value of p<0.05 was considered to be statistically significant and is indicated on the figure by an asterisk over the relevant treatment group.
Compound 18A was dissolved in CREMOPHOR EL®:ethanol and further diluted in physiological buffer prior to i.v. administration. It is now disclosed that compound 18F could be dissolved directly in 80 mM phosphate buffer (pH 6.4) and administered p.o. Compound 18F was administered by oral gavage at doses of 20, 30, 40, 50 and 60 mg/kg to animals showing clinical signs of the disease. Each treatment group comprised at least 10 animals at onset of disease. At some doses, experiments were repeated up to four times.

[1] = Stability in aqueous solutions; type: physicochemical; conditions: 2 mg/ml in phosphate buffer (pH 7.0), 4° C.
Description: Stability of compounds of the invention in aqueous solutions was compared. Compounds were dissolved in buffer phosphate solutions and their concentration monitored using HPLC and spectrophotometer methodology. While compound 18F at concentration of 2 mg/ml in phosphate buffer (pH 7.0) was stable for at least 3 months at 4° C., compound 18B at concentration of 95 μg/ml in citrate buffer (pH 7.1) readily hydrolyzed in less than 24 hours at 4° C. Therefore, compounds that were designed following the same rational yielded unexpectedly divergent outcome, for instance in connection with stability in aqueous solutions.

RAW 264.7 macrophages = assay: NO secretion of LPS activated RAW 264.7 macrophages (ELISA); type: cell-based; conditions: Mus musculus, RAW264.7, 24 hrs after LPS stimulation
Description: RAW 264.7 macrophages, a mouse cell line (ATCC # TIB 71), were grown in Dulbecco's modified Eagle's medium (DMEM) with 4 mM L-glutamine adjusted to contain 1.5 g/L sodium bicarbonate, 4.5 g/L glucose, and 10% heat inactivated fetal bovine serum. Cells were grown in tissue culture flasks and seeded at appropriate density into 6 wells tissue culture plates. Four million Raw cells in half a milliliter were stimulated with 1 μg/ml Lipopolysaccharide E. coli 055:B5 (DIFCO Laboratories). The mouse macrophages were pre-treated for one hour with controls or 10 μM of test compounds, and later on activated with LPS. RNA samples were extracted from the cells 3 hrs after activation and iNOS gene expression levels were analyzed by real-time RT-PCR as previously described. For western blot analysis, compounds were tested at 1, 5 and 10 μM and cells were harvested 24 hrs after LPS stimulation. Supernatant were collected and NO secretion was analyzed using ELISA. Cells were washed 3 times with cold PBS, scrapped and lyzed in 100 μl cell lysis buffer containing 20 mM HEPES, pH 7.6, 150 mM NaCl, 1.5 mM MgCl2, 0.2 mM EDTA, 1% Triton X-100, 10% glycerol, 1 mM DTT, 1 mM PMSF, 10 μg/ml aprotinin. 5 µg/ml leupeptin, 10 mM p-nitrophenyl phosphate, 100 mM β-glycerophosphate, 1 mM sodium fluoride, and 0.1 μM sodium orthovanadate. Cells were lyzed on ice for 10 minutes before further processing. […]

CCCCCCC(C)(C)c1cc(O)c([C@H]2CC(=O)C3CC2C3(C)C)c(OC(=O)/C=C/C(=O)O)c1 (single isomer, unassigned; (-)) [Compound 18F, (−)-4-{4-[1,1-Dimethylheptyl]-2-fumarate-6-hydroxy-phenyl}-6,6-dimethyl-bicyclo[3.1.1]heptan-2-one]
effect on clinical outcome (mean group score) (MBP induced acute EAE; 20 mg/kg p.o.): does not significantly affect the clinical outcome
effect on mean of maximal scores (MMS) (MBP induced acute EAE; 20 mg/kg p.o.): only a trend of improvement
effect on clinical outcome (mean group score) (MBP induced acute EAE; 30 mg/kg p.o.): positive trend of score reduction
reduction of AUC (MBP induced acute EAE; 30 mg/kg p.o., ns): more than 20%
reduction of AUC (MBP induced acute EAE; 40 mg/kg p.o., p<0.05): 33%
reduction of AUC (MBP induced acute EAE; 50 mg/kg p.o., p<0.05): 42%
animals died before study completion (MBP induced acute EAE; 60 mg/kg p.o.): 7%
reduction of AUC (MBP induced acute EAE; 60 mg/kg p.o., p<0.05): 43%
increase of pain threshold over vehicle treated animals (mechanical hyperalgesia) (MBP induced acute EAE; 60 mg/kg p.o., preliminary): 25%
reduction in MMS (MBP induced acute EAE; 30-60 mg/kg p.o.): at least 30%
CB1 mediated side effects (MBP induced acute EAE; repeated p.o. administration): no CB1 mediated side effects were observed
time stable in solution [1]: at least 3 months
inhibition at 10 µM (RAW 264.7 macrophages): 61%
